Some results are limits rather than exact numbers.

One series concerns Staphylococcus aureus. The series can be described thus: Antibiotic activity against Staphylococcus aureus on solid media and in liquid culture. To be noted: L-agar, filter disc soaked in 100 μM, overnight 37° C. The format is cell-based. The protocol: The antibacterial properties of Compound 2 were assessed against Staphylococcus aureus grown on both solid media (A-C) and in liquid culture (D). Log phase culture was plated onto L-agar and filter discs soaked in A) DMSO (vehicle control), B) 100 μM ampicillin or C) 100 μM compound #2. A single filter was placed in the centre of a bacterial plate before being placed at 37° C. overnight. The clear zone surrounding the disc in B & C represents sensitivity of S. aureus to the treatment. D) This sensitivity was quantitated in liquid culture by seeding 10^4 cells in a 96 well plate followed by overnight growth at 37° C. The growth of the culture was measured by absorbance at 600 nm.

Series [1] deals with T1, hPC-108, biotin domain of human pyruvate carboxylase (C-terminal 108 amino acids), cleaved from GST.
T1 sequence: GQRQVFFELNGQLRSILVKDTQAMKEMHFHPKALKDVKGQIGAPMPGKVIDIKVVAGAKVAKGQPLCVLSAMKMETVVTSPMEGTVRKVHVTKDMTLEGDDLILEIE

A further series addresses C. albicans BPL (Candida albicans, UniProt A0A1D8PUA1). The series can be described thus: biochemical. The format is biochemical.
Another series has as its target T2, Escherichia coli BPL (Escherichia coli, UniProt P06709).
T2 construct: the plasmid pHBA, which contains the entire coding region for E. coli BirA; made in house; host or cells: E. coli BL21(DE3), plasmid pHBA (pET-16b)
The series can be described thus: In vitro biotinylation assay of E. coli BPL. It counts as biochemical. As for the experimental part: (§1) Purified hPC-108 was analysed in an in vitro biotinylation assay using recombinant human BPL as follows: BPL activity was assayed by measuring the incorporation of [^3H]biotin into biotin domain. The reactions contained 50 mM Tris-HCl, pH 8.0, 3 mM ATP, 5.5 mM MgCl2, 50 mM KCl, 5 uM biotin, 5 pmol [^3H]biotin (specific activity 35-44 Ci/mmol) 0.1 mM dithiothreitol, 0.1 mg/ml BSA and varying concentrations of hPC-108. The reaction was initiated by addition of purified […] BPL to a final concentration of 13 nM and incubated at 37° C. for up to 30 minutes when aliquots of the reaction were spotted onto biotin- and trichloroacetic acid-treated filters. After air-drying, the filters were washed twice in 10% ice cold trichloroacetic acid and once in ethanol, dried and the acid insoluble radioactivity measured. Values for Km and Vmax were determined by fitting a plot of substrate concentration against rate to the Michaelis-Menten equation using GraphPad Prism for MacIntosh (GraphPad Software Inc, San Diego, Calif.).
(§2) The activity of BPL from Escherichia coli, Staphylococcus aureus, Saccharomyces cerevisiae and Homo sapiens was measured using an in vitro biotinylation assay in the presence of increasing concentrations of Compounds 2 to 5.

Series [2] concerns the target T3, Saccharomyces cerevisiae BPL (Saccharomyces cerevisiae, UniProt P48445).
T3 sequence (P48445 1-690): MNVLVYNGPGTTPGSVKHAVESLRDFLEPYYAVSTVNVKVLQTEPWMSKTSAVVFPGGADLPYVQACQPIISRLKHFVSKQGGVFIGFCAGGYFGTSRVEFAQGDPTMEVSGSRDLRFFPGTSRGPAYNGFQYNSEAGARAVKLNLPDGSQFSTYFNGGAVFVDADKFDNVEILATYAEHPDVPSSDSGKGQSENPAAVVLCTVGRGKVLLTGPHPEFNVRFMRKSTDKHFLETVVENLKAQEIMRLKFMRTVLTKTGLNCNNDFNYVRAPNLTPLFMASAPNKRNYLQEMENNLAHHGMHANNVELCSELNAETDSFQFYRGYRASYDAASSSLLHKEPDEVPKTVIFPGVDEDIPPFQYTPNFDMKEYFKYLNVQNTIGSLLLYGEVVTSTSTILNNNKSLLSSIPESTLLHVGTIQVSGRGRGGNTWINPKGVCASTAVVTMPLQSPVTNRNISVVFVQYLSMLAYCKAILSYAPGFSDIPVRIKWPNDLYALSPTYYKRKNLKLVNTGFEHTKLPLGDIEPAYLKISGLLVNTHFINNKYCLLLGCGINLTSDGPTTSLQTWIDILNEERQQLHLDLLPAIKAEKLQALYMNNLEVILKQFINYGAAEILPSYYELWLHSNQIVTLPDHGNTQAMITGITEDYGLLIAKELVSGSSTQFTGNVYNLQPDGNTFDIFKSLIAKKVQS
The series can be described thus: In vitro biotinylation assay of S. cerevisiae BPL. The format is biochemical. As for the experimental part: (§3) One hundred ng of biotin domain was coated onto each well of Griener Lumitrac 600 White 96-well plates (Stennick Scientific) with >95% of the peptide binding. Coating was performed overnight at 4° C. in 100 uL of Tris Buffered saline (TBS, pH 7.5). The sample was removed and wells blocked in 150 ul of a 1% BSA solution in TBS for 1 hr at 37° C. The blocking buffer was removed and wells washed five times in TBS buffer containing 0.1% Tween-20. Into each well 85 ul of the BPL reaction mix was added. The reaction for both C. albicans and human BPL are performed in 50 mM Tris-HCl pH 8.0, 100 uM ATP, 5.5 mM MgCl2, 0.1 mg/ml BSA, 10 uM biotin, […].
Ten ul of either buffer alone or buffer containing inhibitor was added to the reaction mix and pre-equilibrated at 37° C. for 5 minutes. […] The quantitative analysis of biotinylated protein formed in the reaction and coupled onto the well surface was determined using time resolved fluorescence. […] Fifty ul of DELFIA Enhancement solution (Perkin Elmer) was added and incubated for ten minutes at room temperature before quantitation. Quantitation was performed using a FLUOstar Galaxy plate reader (BMG Labtechnologies).
as §2

For series [3], the target named is T4, Staphylococcus aureus BPL (UniProt A0A3A5LBF0).
T4 sequence (A0A3A5LBF0 1-323): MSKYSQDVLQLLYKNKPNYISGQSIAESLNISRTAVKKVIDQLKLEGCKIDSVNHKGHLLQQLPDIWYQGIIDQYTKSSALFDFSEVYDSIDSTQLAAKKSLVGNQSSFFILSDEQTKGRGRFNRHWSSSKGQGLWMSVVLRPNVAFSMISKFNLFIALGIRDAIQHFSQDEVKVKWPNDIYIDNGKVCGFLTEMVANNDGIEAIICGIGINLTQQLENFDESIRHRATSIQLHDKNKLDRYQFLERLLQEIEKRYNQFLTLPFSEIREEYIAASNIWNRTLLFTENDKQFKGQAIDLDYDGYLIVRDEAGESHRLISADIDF
The series can be described thus: In vitro biotinylation assay of S. aureus BPL. It counts as biochemical. The protocol:
as §1, §2

For series [4], the target named is T5, human BPL (Homo sapiens, UniProt P50747).
T5 construct: Vector pARA(hBPL-His6) was produced by cloning the full-length gene into Nco1/Hind111 treated pARA13; initiator Met (NcoI site) before Ala80 (N); made in house; host or cells: E. coli BL21(DE3)pLys, pET-16b vector
T5 sequence (P50747 80-726 limits assumed): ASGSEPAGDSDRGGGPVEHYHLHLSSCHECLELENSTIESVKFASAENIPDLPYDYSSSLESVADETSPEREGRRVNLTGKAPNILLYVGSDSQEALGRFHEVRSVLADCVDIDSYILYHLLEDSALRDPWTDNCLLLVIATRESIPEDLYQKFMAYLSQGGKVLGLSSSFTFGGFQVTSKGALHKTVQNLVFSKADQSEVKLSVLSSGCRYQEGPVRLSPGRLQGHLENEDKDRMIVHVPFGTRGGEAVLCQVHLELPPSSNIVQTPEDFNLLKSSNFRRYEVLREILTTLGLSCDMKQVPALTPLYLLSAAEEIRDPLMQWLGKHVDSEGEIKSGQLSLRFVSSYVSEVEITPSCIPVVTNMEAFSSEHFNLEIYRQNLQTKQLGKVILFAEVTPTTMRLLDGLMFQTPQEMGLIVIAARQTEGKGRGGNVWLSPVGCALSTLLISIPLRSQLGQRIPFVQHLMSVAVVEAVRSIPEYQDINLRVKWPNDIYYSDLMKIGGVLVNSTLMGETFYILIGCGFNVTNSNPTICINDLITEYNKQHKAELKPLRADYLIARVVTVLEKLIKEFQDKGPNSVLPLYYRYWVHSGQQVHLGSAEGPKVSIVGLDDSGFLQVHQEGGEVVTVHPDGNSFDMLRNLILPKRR
Kind of series: In vitro biotinylation assay of human BPL (Example 9). The format is biochemical. The protocol:
as §3
Ten ul of either buffer alone or buffer containing inhibitor was added to the reaction mix and pre-equilibrated at 37° C. for 5 minutes. […] The quantitative analysis of biotinylated protein formed in the reaction and coupled onto the well surface was determined using time resolved fluorescence. […] Fifty ul of DELFIA Enhancement solution (Perkin Elmer) was added and incubated for ten minutes at room temperature before quantitation. Quantitation was performed using a FLUOstar Galaxy plate reader (BMG Labtechnologies). […]
as §2

Series [5] deals with T5, human BPL. Kind of series: Kinetic analysis of biotinylation of hPC-108, [3H]biotin incorporation assay. It counts as biochemical. To be noted: varying concentrations of hPC-108; read-out: KM of human BPL for the biotin domain. As for the experimental part:
as §1

Sequence of C. albicans BPL (A0A1D8PUA1 entry or part of it): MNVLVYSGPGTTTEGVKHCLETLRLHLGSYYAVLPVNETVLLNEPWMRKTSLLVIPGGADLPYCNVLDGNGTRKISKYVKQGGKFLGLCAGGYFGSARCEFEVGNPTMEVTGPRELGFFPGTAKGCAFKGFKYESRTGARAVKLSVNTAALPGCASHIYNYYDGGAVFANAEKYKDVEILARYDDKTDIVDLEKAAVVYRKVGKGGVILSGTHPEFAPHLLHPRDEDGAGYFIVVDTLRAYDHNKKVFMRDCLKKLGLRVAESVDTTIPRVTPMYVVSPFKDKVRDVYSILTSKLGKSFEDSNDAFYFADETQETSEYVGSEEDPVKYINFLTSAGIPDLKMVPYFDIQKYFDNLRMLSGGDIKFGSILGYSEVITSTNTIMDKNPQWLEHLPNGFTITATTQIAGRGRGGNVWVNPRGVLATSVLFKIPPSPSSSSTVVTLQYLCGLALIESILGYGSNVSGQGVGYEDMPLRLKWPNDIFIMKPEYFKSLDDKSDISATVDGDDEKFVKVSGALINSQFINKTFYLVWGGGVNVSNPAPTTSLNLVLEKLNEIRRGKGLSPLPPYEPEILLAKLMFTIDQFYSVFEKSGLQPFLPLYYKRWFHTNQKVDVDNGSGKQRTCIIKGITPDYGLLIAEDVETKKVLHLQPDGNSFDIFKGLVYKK
T2 sequence (P06709 whole entry): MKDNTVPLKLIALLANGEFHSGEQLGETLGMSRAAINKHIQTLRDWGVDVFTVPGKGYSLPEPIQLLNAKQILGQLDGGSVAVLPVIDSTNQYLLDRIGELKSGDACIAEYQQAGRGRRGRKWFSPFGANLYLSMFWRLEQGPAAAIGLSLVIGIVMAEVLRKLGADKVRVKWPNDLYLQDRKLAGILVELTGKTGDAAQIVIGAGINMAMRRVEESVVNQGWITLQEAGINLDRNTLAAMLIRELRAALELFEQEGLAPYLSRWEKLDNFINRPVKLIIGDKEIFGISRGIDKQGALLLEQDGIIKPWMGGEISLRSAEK
Procedure for C. albicans BPL: One hundred ng of biotin domain was coated onto each well of Griener Lumitrac 600 White 96-well plates (Stennick Scientific) with >95% of the peptide binding. Coating was performed overnight at 4° C. in 100 uL of Tris Buffered saline (TBS, pH 7.5). The sample was removed and wells blocked in 150 ul of a 1% BSA solution in TBS for 1 hr at 37° C. The blocking buffer was removed and wells washed five times in TBS buffer containing 0.1% Tween-20. Into each well 85 ul of the BPL reaction mix was added. The reaction for both C. albicans and human BPL are performed in 50 mM Tris-HCl pH 8.0, 100 uM ATP, 5.5 mM MgCl2, 0.1 mg/ml BSA, 10 uM biotin, 0.1 uM dithiothreitol.
Ten ul of either buffer alone or buffer containing inhibitor was added to the reaction mix and pre-equilibrated at 37° C. for 5 minutes. BPL reactions are initiated by the addition of 5 ul enzyme to a final concentration of 3.4 nM (1-5 nM). The reaction is allowed to proceed at 37° C. for 15 minutes at which point it is terminated by the addition of 5 ul 0.5 M EDTA (final concentration 25 mM). The reaction mix was discarded and wells washed five times in TBS-TD (TBS, 0.1% Tween-20 and 100 uM diethylenetriaminepentaacetic acid (DPTA)). The quantitative analysis of biotinylated protein formed in the reaction and coupled onto the well surface was determined using time resolved fluorescence. Fifty ul of Europium labelled streptavidin (Perkin-Elmer) solution, diluted to 0.1 ug/ml in TBS-TD, was added to each well. The plates were incubated at 37° C. for 1 hr before being washed five times in TBS-TD then three times in water. Fifty ul of DELFIA Enhancement solution (Perkin Elmer) was added and incubated for ten minutes at room temperature before quantitation. Quantitation was performed using a FLUOstar Galaxy plate reader (BMG Labtechnologies).
Each compound in the screening library was dissolved in 100% DMSO, added to the reactions to a final concentration of 10 μM or 50 μM and their effect on BPL activity measured. […] The inhibitory activity of the compounds was determined relative to the negative control reactions containing only DMSO.

For the molecule `CC1(C)S[C@@H]2[C@H](NC(=O)[C@H](N)c3ccccc3)C(=O)N2[C@H]1C(=O)O` [ampicillin], the “Sensitivity of S. aureus on solid media (filter disc)” value in the series on Staphylococcus aureus is “clear zone”.

As for “recombinant human biotin protein ligase [Met1-Ala80]hBPL-His6”, the “KM (in vitro [3H]biotin incorporation assay, Michaelis-Menten fit)” value in series [1] amounted to 1.0 ± 0.2 µM.

For the molecule `O=P(O)(O)OP(=O)(O)O` [pyrophosphate], the “Inhibition of the Candida BPL reaction (in words)” value at C. albicans BPL is “potent inhibitors”. On C. albicans BPL (in the range of 50 uM to 1 mM), the “Inhibition of the Candida BPL reaction by pyrophosphate” value was “strongly inhibited”.

On to `C=CCC(Cc1cc(OC)cc(OC)c1)(C(=O)O)C(=O)O` [Compound 4, 2-allyl-2-(3,5-dimethoxybenzyl)malonic acid], for which the IC50 against Escherichia coli BPL was 0.9 nM; in series [2], above 50000 nM; in series [3] it was 2700 nM; against human BPL [4], above 50000 nM.

Consider `Nc1ncnc2c1ncn2C1OC(COP(=O)(O)OCCCCCC2SCC3NC(=O)NC32)C(O)C1O` (stereo not drawn) [BtnOH-AMP, biotinol-adenylate], for which the “Inhibition of the human BPL reaction (in words)” value at human BPL [4] was “inhibitor”. Also, the “Inhibition of the Candida BPL reaction (in words)” value on C. albicans BPL is “potent inhibitors”. Also, the half-inhibitory concentration (IC50) on C. albicans BPL (concentration response curve, read-out: IC50, inhibition of Candida BPL activity) was 1000 ± 200 nM.

B1: hPC-108: polypeptide of the C-terminal 108 amino acids (biotin domain) of human pyruvate carboxylase, BPL substrate (protein)
chain: T1 sequence
Turning to B1, the Km with human BPL [5] turned out to be 1 ± 0.2 µM.

As usually defined, the IC50 is the midpoint of a concentration-inhibition curve. In general, Km refers to the concentration of substrate that gives half-maximal velocity.

The values are drawn from patent US20090118372A1, “Inhibitors Of Biotin Protein Ligase” (Adelaide Research & Innovation Pty Ltd., priority 2004, published 2009).
